Paper PMC3355106, “Structural Basis for Specificity of Propeptide-Enzyme Interaction in Barley C1A Cysteine Peptidases” (PLoS ONE, 2012)
Peptide text beside a SMILES is read from it. * marks the point of attachment. AMC = Cc1cc(=O)oc2cc(N*)ccc12; Cbz = O=C(OCc1ccccc1)*

Assays:
Assay in all cases: fluorescence of released AMC
Assay type in all cases: biochemical
Settings in all cases: pH 6.0, 30 °C, 10 mM L-cysteine, 10 mM EDTA, 0.01% Brij35
HvPap-16 = molecular target: T1, HvPap-16 (Hordeum vulgare, UniProt B4ESF4)
T1 construct: gene pap-16; the propeptide cloning list prints HvPap-17 (A23-V156) instead of HvPap-16

HvPap-6 = molecular target: T2, HvPap-6 (Hordeum vulgare, UniProt B4ESE8)
T2 construct: gene pap-6; propeptide printed as A25-E131

HvPap-4 = molecular target: T3, HvPap-4 (Hordeum vulgare, UniProt B4ESE6)
T3 construct: gene pap-4; propeptide printed as R25-D134

BovCathB = molecular target: T4, BovCathB (Bos taurus, UniProt P07688)
T4 construct: gene CTSB; commercial enzyme (Calbiochem)

T3 sequence (B4ESE6 entry or part of it): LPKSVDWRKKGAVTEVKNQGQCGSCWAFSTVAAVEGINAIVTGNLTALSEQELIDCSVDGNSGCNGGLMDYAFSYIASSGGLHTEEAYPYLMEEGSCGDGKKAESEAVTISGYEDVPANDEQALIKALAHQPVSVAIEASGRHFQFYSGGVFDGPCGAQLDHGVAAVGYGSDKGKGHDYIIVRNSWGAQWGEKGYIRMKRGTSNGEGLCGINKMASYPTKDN
T1 sequence (B4ESF4 entry or part of it): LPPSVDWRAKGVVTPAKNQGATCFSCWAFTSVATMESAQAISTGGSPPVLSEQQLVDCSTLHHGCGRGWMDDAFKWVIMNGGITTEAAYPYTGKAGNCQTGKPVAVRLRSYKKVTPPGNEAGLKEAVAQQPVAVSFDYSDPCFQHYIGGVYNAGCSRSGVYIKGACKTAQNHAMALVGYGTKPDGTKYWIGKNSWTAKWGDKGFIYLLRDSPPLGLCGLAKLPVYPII
T2 sequence (B4ESE8 entry or part of it): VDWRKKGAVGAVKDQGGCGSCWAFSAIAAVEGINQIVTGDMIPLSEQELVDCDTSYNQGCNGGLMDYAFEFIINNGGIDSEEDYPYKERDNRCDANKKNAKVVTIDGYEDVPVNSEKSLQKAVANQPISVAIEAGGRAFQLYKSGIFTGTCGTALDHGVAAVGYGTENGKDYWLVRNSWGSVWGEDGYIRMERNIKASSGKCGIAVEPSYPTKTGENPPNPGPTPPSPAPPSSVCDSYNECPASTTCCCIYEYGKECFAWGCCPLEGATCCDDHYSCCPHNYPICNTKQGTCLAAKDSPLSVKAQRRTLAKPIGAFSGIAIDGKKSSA

## Cc1cc(=O)oc2cc(NC(=O)[C@H](CCCNC(=N)N)NC(=O)[C@H](Cc3ccccc3)NC(=O)OCc3ccccc3)ccc12 [Z-FR-AMC] (Cbz-Phe-Arg-{AMC})
HvPap-16
  fluorescence of released AMC: Z-FR-AMC (for cathepsin L) or Z-RR-AMC (for cathepsin B) fluorescent substrates were added
HvPap-6
  fluorescence of released AMC: Z-FR-AMC (for cathepsin L) or Z-RR-AMC (for cathepsin B) fluorescent substrates were added
HvPap-4
  fluorescence of released AMC: Z-FR-AMC (for cathepsin L) or Z-RR-AMC (for cathepsin B) fluorescent substrates were added

## Cc1cc(=O)oc2cc(NC(=O)[C@H](CCCNC(=N)N)NC(=O)[C@H](CCCNC(=N)N)NC(=O)OCc3ccccc3)ccc12 [Z-RR-AMC] (Cbz-Arg-Arg-{AMC})
BovCathB
  fluorescence of released AMC: Z-FR-AMC (for cathepsin L) or Z-RR-AMC (for cathepsin B) fluorescent substrates were added
